From ChEMBL document CHEMBL1201862, “PubChem BioAssay data set” (2004)
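Growth conditions: 96-well plates. Treatment: test compound, 48 hours, 5 concentrations. Analysis: linear interpolation between bracketing concentrations; unreached endpoints set to highest concentration. Here, GI50 denotes the concentration required for 50% inhibition of growth.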 The source made the active and inactive calls. No stated cut-off is given here; in the data, active = GI50 up to about 1.1 µM and inactive = higher.

Tests used:
Test in all cases: DTP human tumour cell line panel, 48 h
[1] = test system: MOLT-4
[2] = test system: SW-620
[3] = test system: 786-0
[4] = test system: A549
[5] = test system: NCI-H226
[6] = test system: HL-60
[7] = test system: SF-268
[8] = test system: OVCAR-8
[9] = test system: UO-31
[10] = test system: M19-MEL
[11] = test system: OVCAR-3
[12] = test system: SNB-75
[13] = test system: SK-MEL-28
[14] = test system: HOP-92
[15] = test system: UACC-257
[16] = test system: M14
[17] = test system: HCT-15
[18] = test system: MDA-MB-231
[19] = test system: HCC 2998
[20] = test system: RXF 393

Structure (SMILES)	GI50 [1]	GI50 [2]	GI50 [3]	GI50 [4]	GI50 [5]	GI50 [6]	GI50 [7]	GI50 [8]	GI50 [9]	GI50 [10]	GI50 [11]	GI50 [12]	GI50 [13]	GI50 [14]	GI50 [15]	GI50 [16]	GI50 [17] [µM]	GI50 [18]	GI50 [19]	GI50 [20]
CC(=O)N1CC(=O)NC1=S	> 100 µM (inactive)	> 100 µM (inactive)	> 100 µM (inactive)	> 100 µM (inactive)	> 100 µM (inactive)	> 100 µM (inactive)	> 100 µM (inactive)	> 100 µM (inactive)	> 100 µM (inactive)	> 100 µM (inactive)	> 100 µM (inactive)	69.3 µM (inactive)	> 100 µM (inactive)	> 100 µM (inactive)	> 100 µM (inactive)	> 100 µM (inactive)	> 100	–	–	–
NS(=O)(=O)c1ccc(/N=N/c2ccc(O)cc2)cc1	4.25 µM (inactive)	44.5 µM (inactive)	> 100 µM (inactive)	28.3 µM (inactive)	19.3 µM (inactive)	30.1 µM (inactive)	53.6 µM (inactive)	45.3 µM (inactive)	12.6 µM (inactive)	–	66.4 µM (inactive)	19.1 µM (inactive)	21.4 µM (inactive)	75.3 µM (inactive)	51.2 µM (inactive)	33.2 µM (inactive)	59.2	64.3 µM (inactive)	> 100 µM (inactive)	> 100 µM (inactive)
C/C(=N\NC(=S)N1CCCCCCCCCCCC1)c1ccccn1	0.0318 µM (active)	0.0652 µM (active)	0.173 µM (active)	0.356 µM (active)	0.199 µM (active)	0.0167 µM (active)	0.225 µM (active)	0.147 µM (active)	0.349 µM (active)	–	0.0346 µM (active)	0.243 µM (active)	0.33 µM (active)	0.111 µM (active)	0.0689 µM (active)	0.214 µM (active)	0.216	0.169 µM (active)	0.385 µM (active)	0.0769 µM (active)
CCOC(OCC)c1ccc(/C=C/c2cc(OC)c(OC)c(OC)c2)cc1	–	22.7 µM (inactive)	23.3 µM (inactive)	27.7 µM (inactive)	30.4 µM (inactive)	11.7 µM (inactive)	23.1 µM (inactive)	26.9 µM (inactive)	15.1 µM (inactive)	19.9 µM (inactive)	18 µM (inactive)	19.5 µM (inactive)	21 µM (inactive)	21.8 µM (inactive)	20.2 µM (inactive)	17.7 µM (inactive)	15.9	–	–	19.8 µM (inactive)
COC(=O)[C@]12CCC(C)(C)C[C@H]1C1=CC[C@@H]3[C@@]4(C)CC[C@H](OC5OC(CO)C(O)C(O)C5OC5OC(CO)C(O)C(O)C5O)C(C)(C)[C@@H]4CC[C@@]3(C)[C@]1(C)CC2 (some centres not stated)	17.5 µM (inactive)	14.2 µM (inactive)	11.2 µM (inactive)	8.83 µM (inactive)	3.43 µM (inactive)	4.93 µM (inactive)	13.7 µM (inactive)	15.9 µM (inactive)	3.4 µM (inactive)	–	10.6 µM (inactive)	13.5 µM (inactive)	3.37 µM (inactive)	3.91 µM (inactive)	7.85 µM (inactive)	3.91 µM (inactive)	12.5	2.65 µM (inactive)	14.8 µM (inactive)	5.75 µM (inactive)
CC1Cc2c(N)nc(NN)nc2NC1=O (configuration not stated)	> 100 µM (inactive)	> 100 µM (inactive)	> 100 µM (inactive)	> 100 µM (inactive)	> 100 µM (inactive)	> 100 µM (inactive)	–	> 100 µM (inactive)	> 100 µM (inactive)	> 100 µM (inactive)	> 100 µM (inactive)	> 100 µM (inactive)	> 100 µM (inactive)	–	> 100 µM (inactive)	> 100 µM (inactive)	> 100	–	–	> 100 µM (inactive)
CCc1cn(C2CC(CO)C(CO)S2)c(=O)[nH]c1=O (configuration not stated)	> 100 µM (inactive)	> 100 µM (inactive)	> 100 µM (inactive)	> 100 µM (inactive)	> 100 µM (inactive)	> 100 µM (inactive)	> 100 µM (inactive)	> 100 µM (inactive)	> 100 µM (inactive)	–	> 100 µM (inactive)	> 100 µM (inactive)	> 100 µM (inactive)	> 100 µM (inactive)	> 100 µM (inactive)	> 100 µM (inactive)	> 100	> 100 µM (inactive)	> 100 µM (inactive)	> 100 µM (inactive)
O=C1/C(=C(/Br)I)c2ccccc2-c2ccccc21	2.21 µM (inactive)	2.52 µM (inactive)	3.34 µM (inactive)	15.9 µM (inactive)	18.8 µM (inactive)	0.248 µM (active)	14.1 µM (inactive)	16.9 µM (inactive)	2.4 µM (inactive)	–	9.98 µM (inactive)	15.5 µM (inactive)	21.5 µM (inactive)	2.79 µM (inactive)	6.01 µM (inactive)	9.95 µM (inactive)	4.34	6.14 µM (inactive)	3.76 µM (inactive)	3.21 µM (inactive)
C[C@@H](CC(=O)O)OC1OC(COC(=O)C(C)(C)C)C(OC(=O)C(C)(C)C)C(OC(=O)C(C)(C)C)C1OC(=O)C(C)(C)C (some centres not stated)	38.6 µM (inactive)	45.4 µM (inactive)	66.2 µM (inactive)	45 µM (inactive)	> 100 µM (inactive)	21.9 µM (inactive)	50.7 µM (inactive)	81.7 µM (inactive)	> 10 µM (inactive)	–	64.7 µM (inactive)	72.8 µM (inactive)	89.7 µM (inactive)	38.1 µM (inactive)	> 100 µM (inactive)	> 100 µM (inactive)	32.4	> 100 µM (inactive)	35 µM (inactive)	45.3 µM (inactive)
C=CCC(CCC(C)=O)(C(=O)OCC)C(=O)OCC	> 100 µM (inactive)	> 100 µM (inactive)	> 100 µM (inactive)	> 100 µM (inactive)	> 100 µM (inactive)	> 100 µM (inactive)	> 100 µM (inactive)	> 100 µM (inactive)	> 100 µM (inactive)	–	> 100 µM (inactive)	> 100 µM (inactive)	> 100 µM (inactive)	> 100 µM (inactive)	> 100 µM (inactive)	> 100 µM (inactive)	> 100	> 100 µM (inactive)	> 100 µM (inactive)	> 100 µM (inactive)
C[C@]12CCC3C4=C(CCC3C1CCC2=O)C(=O)[C@H]1O[C@H]1C4=O (some centres not stated)	0.785 µM (active)	1.78 µM (inactive)	1.83 µM (inactive)	11 µM (inactive)	2.18 µM (inactive)	2.67 µM (inactive)	2.31 µM (inactive)	2.09 µM (inactive)	2.31 µM (inactive)	–	1.46 µM (inactive)	3.23 µM (inactive)	12.3 µM (inactive)	7.67 µM (inactive)	17.4 µM (inactive)	4.05 µM (inactive)	1.36	1.8 µM (inactive)	1.9 µM (inactive)	1.6 µM (inactive)
